Laboratory results published in patent publication US20150338397A1, “Use of Bufodienolides in Diagnosing and Treating Essential Hypertension” (priority 2014, published 2015).

How the values were obtained:
[1] = in vitro; cited from earlier work
[2] = test system: volume expansion induced hypertensive rats; experiment: Systolic blood pressure in saline volume expansion induced hypertensive rats (NDS); type: in vivo; conditions: NDS rats given resibufogenin (NDSR) vs NDS; FIG. 1
Source text: (§1) FIG. 1. Mean systolic blood pressure (BP) values in sham (SHM) animals, angiotensin-infused rats (ANG), angiotensin infused animals given resibufogenin (ANGR), normal rats rendered hypertensive by the infusion of saline (volume expansion induced hypertensive rats) (NDS), NDS rats given resibufogenin (NDSR).

[3] = test system: rodent brain contusion model; conditions: given 1 hour after the insult; cited from earlier work
angiotensin-infused rats = experiment: Systolic blood pressure in angiotensin-infused rats (ANG); type: in vivo; conditions: FIG. 1
Source text: as §1

[4] = test system: preeclampsia in animal models; conditions: cited from earlier work
[5] = test system: volume expansion-mediated hypertension; conditions: experimental animals; cited from earlier work
[6] = test system: animals subjected to angiotensin excess; conditions: cited from earlier work

C[C@]12CC[C@H](O)C[C@@]1(O)CC[C@@H]1[C@@H]2CC[C@]2(C)[C@@H](c3ccc(=O)oc3)C[C@H]3O[C@]132 [MBG, marinobufagenin]
Vasoconstrictor action [1]: acts in vitro as a vasoconstrictor

C[C@]12CC[C@H](O)C[C@H]1CC[C@@H]1[C@@H]2CC[C@]2(C)[C@@H](c3ccc(=O)oc3)C[C@H]3O[C@]132 [RBG, epoxy-3β-hydroxy-5β-bufa-20,22-dienolide]
Mean systolic blood pressure (BP) [2]: reduced blood pressure
Tissue injury [3]: amelioration of tissue injury
Mean systolic blood pressure (BP) (angiotensin-infused rats; angiotensin infused animals given resibufogenin (ANGR) vs ANG): only in the volume expanded animals
Prevention of preeclampsia [4]: prevents preeclampsia
Blood pressure elevations [5]: resolves blood pressure elevations
Elevated blood pressure [6]: does not lower elevated blood pressure

angiotensin (DRVYIHPF; Angiotensin-2; UniProt P01019 25-32, looked up) [the major vasoconstrictor in the human body; infused to render rats hypertensive]
Mean systolic blood pressure (BP), effect of angiotensin infusion (angiotensin-infused rats; angiotensin-infused rats (ANG) vs sham (SHM)): raised blood pressure equivalently
